Values quoted from earlier work, collected in publication PMC5957517 (Biochimica et biophysica acta, 2018).

System: MRSA infections
Conditions: ref [43],[44]

## CN[C@H](CC(C)C)C(=O)N[C@H]1C(=O)N[C@@H](CC(N)=O)C(=O)N[C@H]2C(=O)N[C@H]3C(=O)N[C@H](C(=O)N[C@H](C(=O)O)c4cc(O)cc(O)c4-c4cc3ccc4O)[C@H](O)c3ccc(c(Cl)c3)Oc3cc2cc(c3O[C@@H]2O[C@H](CO)[C@@H](O)[C@H](O)[C@H]2O[C@H]2C[C@](C)(N)[C@H](O)[C@H](C)O2)Oc2ccc(cc2Cl)[C@H]1O [vancomycin]
  reported clinical efficacy: 35-57%
